Reference: the NIST ThermoML archive (doi:10.1016/j.jct.2017.11.015)

Key:
[1] = molar heat capacity at constant pressure; settings: 101.33 kPa, Crystal, Small sample (50 mg) DSC
[2] = molar heat capacity at constant pressure; an = ratio of the nth substance listed; settings: 100 kPa, Crystal of intercomponent compound 1, Small sample (50 mg) DSC, a2 = 25

[Bi+3].[Bi+3].[O-2].[O-2].[O-2] [bismuth oxide]
[1]
Settings | molar heat capacity at constant pressure [J/K/mol]
333 K | 115.4
353 K | 117
403 K | 120.1
453 K | 122.4
503 K | 124.6
553 K | 126.5
603 K | 128
653 K | 129.7
703 K | 131.4
753 K | 132.7
778 K | 133.2
803 K | 133.3
813 K | 133.5

[Fe+3].[Fe+3].[O-2].[O-2].[O-2] [ferric oxide] + [Bi+3].[Bi+3].[O-2].[O-2].[O-2]
[2]
Settings | molar heat capacity at constant pressure [J/K/mol]
308 K | 1355.9
353 K | 1430.1
403 K | 1482.3
453 K | 1520.3
503 K | 1543.9
553 K | 1563.9
603 K | 1587.1
653 K | 1610.4
703 K | 1628.1
753 K | 1644.7
803 K | 1658.4
818 K | 1662.7
